From PubChem BioAssay (NCI)
Where “and” joins values, the source holds several entries; their conditions need not be identical. Equal values may be shown once.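 1) Cells in 96-well plates. 2) Compound, 48 h, 5 concentrations. 3) Linear interpolation between surrounding doses. 4) Unreached endpoint = highest concentration. GI50 marks 50% less growth. TGI denotes the concentration required for complete inhibition of growth.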

Columns and labels:
Assay in all cases: NCI tumour cell line growth inhibition, 48 h
MDA-MB-231 breast = test system: MDA-MB-231 breast
COLO 205 colon = test system: COLO 205 colon
A549 NSCLC = test system: A549 NSCLC
EKVX NSCLC = test system: EKVX NSCLC
HCT-116 colon = test system: HCT-116 colon
MDA-MB-435 = test system: MDA-MB-435
ACHN renal = test system: ACHN renal

| Structure (SMILES) | GI50 (MDA-MB-231 breast) | TGI (MDA-MB-231 breast) | GI50 (COLO 205 colon) | TGI (COLO 205 colon) | GI50 (A549 NSCLC) | TGI (A549 NSCLC) | GI50 (EKVX NSCLC) | TGI (EKVX NSCLC) | GI50 (HCT-116 colon) | TGI (HCT-116 colon) | GI50 (MDA-MB-435) | TGI (MDA-MB-435) | GI50 (ACHN renal) | TGI (ACHN renal) |
| --- | --- | --- | --- | --- | --- | --- | --- | --- | --- | --- | --- | --- | --- | --- |
| CCCCCCCCCCN=C(c1ccc(N(C)C)cc1)c1ccc(N(C)C)cc1 | 0.876 µM | 23.9 µM | 0.933 µM | 15.7 µM | 2.53 µM | > 77.6 µM | 1.04 µM | > 100 µM | 0.423 µM | 32.9 µM | 0.0726 µM | 0.332 µM | 2.47 µM | > 73.9 µM |
| Cc1ccc2c(c1)Sc1ccc(N=NN(C)C)cc1N2C |  | > 100 µM |  | > 100 µM |  | > 100 µM |  | > 100 µM |  | > 100 µM |  | > 100 µM |  | > 100 µM |
| O=S1(=O)NCCCN1CCNc1nccc(-c2c(-c3cccc(O)c3)nc3sccn23)n1 | 16.1 µM | > 100 µM | 0.581 µM | 27.4 µM | 42.5 µM | > 100 µM | 61.3 µM | > 100 µM | 5.26 µM | 38.4 µM | 0.563 µM | > 100 µM | 11.8 µM | > 100 µM |
| O=S(=O)(CCOCc1ccc(-c2ccc3ncnc(Nc4ccc(OCc5cccc(F)c5)c(Cl)c4)c3c2)o1)c1ccccc1 | > 25 µM | > 25 µM | > 25 µM | > 25 µM | > 25 µM | > 25 µM | 0.754 µM | > 25 µM | > 25 µM | > 25 µM | > 25 µM | > 25 µM | 1.86 µM | > 25 µM |
| Cn1cc(-c2csc(-c3cn(C)c4ccccc34)n2)c2cnccc21 | 1.47 µM | 2.89 µM |  |  | 2.38 µM | 5.01 µM | 1.56 µM | 3.39 µM | 0.925 µM | 2.19 µM | 1.77 µM | 3.24 µM | 1.8 µM | 3.19 µM |
| CC1CCCc2c1nn(C(=O)/C=C(\N)c1ccccc1)c2N (stereo not drawn) | 28.3 µM | > 100 µM | 10.1 µM | 79.1 µM | 9.06 µM | > 100 µM | 16.5 µM | 44.1 µM | 5.55 µM | 26.3 µM | 10.7 µM | 26.5 µM | 9.94 µM | > 100 µM |
| O=C1C(Cl)=C(Nc2ccccc2)C(=O)c2ccccc21 | 1.58 µM | 3.3 µM | 1.88 µM | 3.77 µM | 15.5 µM | 42.2 µM | 2.21 µM | 5.38 µM | 1.83 µM | 3.53 µM | 1.8 µM | 3.27 µM | 1.63 µM | 3.13 µM |
| OC(CN1CC1)C(O)CN1CC1 (stereo not drawn) | > 50 µg/mL | > 50 µg/mL |  |  | > 50 µg/mL | > 50 µg/mL | > 50 µg/mL | > 50 µg/mL | > 50 µg/mL | > 50 µg/mL | > 50 µg/mL | > 50 µg/mL | > 50 µg/mL | > 50 µg/mL |
| Cn1c([N+](=O)[O-])cnc1/C=C1\Oc2cc(Cl)ccc2C1=O | 0.94 µM | > 28.5 µM | 0.742 µM | 3.59 µM | 1.7 µM | 7.06 µM |  |  | 0.201 µM | 0.806 µM | 0.26 µM | 1.05 µM | 0.209 µM |  |
| Cc1nc(Nc2n[nH]c3c2CN(C(=O)N[C@H](CN(C)C)c2ccccc2)C3(C)C)c2sccc2n1 | 0.0856 µM and 0.0341 µM | 1.98 µM and 1.95 µM | 0.00866 µM and < 0.0109 µM | 0.241 µM and 0.279 µM | 0.0911 µM and 0.291 µM | > 50.9 µM | 0.0907 µM and 0.14 µM | > 8.27 µM and 23.6 µM | 0.00577 µM and < 0.01 µM | > 5.74 µM and 10.3 µM | 0.0272 µM and 0.0275 µM | > 3.52 µM and 3.35 µM | 0.432 µM and 0.337 µM | > 75 µM |
| O=c1c2c3c(sc2n2c(-c4cc(-c5ccccc5)nn4-c4ccccc4)nnc2n1Cc1ccccc1)CCCC3 | > 100 µM | > 100 µM | > 100 µM | > 100 µM | > 100 µM | > 100 µM | > 100 µM | > 100 µM |  |  | > 100 µM | > 100 µM | > 100 µM | > 100 µM |
| COc1ccc(-c2nnc(N3CCN(C(=O)CN4CCN(c5ccc(OC)cc5)CC4)CC3)nc2-c2ccc(OC)cc2)cc1 | 11.7 µM | 41.2 µM | 6.36 µM | 29.7 µM | 25.6 µM | > 100 µM | 7.86 µM | > 65.9 µM | 1.71 µM | 3.11 µM | 4.01 µM | > 55.9 µM | 18.1 µM | 50.8 µM |
| O=C1c2cccnc2-c2nc(-c3ccncc3)cc3c2c1nc1ccccc13 | 14.3 µM | 50.1 µM | 30 µM | 72.6 µM |  |  | 24.3 µM | > 100 µM | 17.1 µM | 51 µM | 15.5 µM | 30.1 µM | 12.1 µM | 24.4 µM |
| CCN(CC)CCNC(=O)c1c(C)[nH]c(/C=C2\C(=O)Nc3ccc(F)cc32)c1C | 7.2 µM and 3.26 µM and 3.52 µM | > 10 µM and 6.68 µM and 14.5 µM | 3.57 µM and 2.98 µM and 3.39 µM | > 10 µM and 5.84 µM and 8.8 µM | 5.52 µM and 2.97 µM and 3.85 µM | > 10 µM and 6.44 µM and 17.6 µM | > 10 µM and 5.27 µM and 8.38 µM | > 10 µM and 20 µM and 21.9 µM | 1.32 µM and 1.38 µM and 1.16 µM | 5.25 µM and 3.85 µM and 3.09 µM | 2.8 µM and 1.63 µM and 1.78 µM | > 10 µM and 5.1 µM and 8.49 µM | 1.77 µM and 1.53 µM and 1.32 µM | > 10 µM and 6.48 µM and 9.5 µM |
| CCC(=C(c1ccc(OCCCN(C)C)cc1)c1ccc(OCCCN(C)C)cc1)c1ccc(Cl)cc1 | 0.413 µM | 1.07 µM | 0.399 µM | 1.04 µM | 0.601 µM | 2.46 µM | 2.43 µM | 4.9 µM | 0.447 µM | 1.15 µM | 0.292 µM | 0.556 µM | 0.469 µM | 1.36 µM |
| C[C@H]1[C@H](C)CC[C@]2(C(=O)NCCNCCN)CC[C@]3(C)C(=CC[C@@H]4[C@@]5(C)CCC(=O)C(C)(C)[C@@H]5CC[C@]43C)[C@H]12 | 1.66 µM | 3.08 µM |  |  |  |  | 1.58 µM | 3.02 µM | 1.71 µM | 3.18 µM | 1.73 µM | 3.23 µM | 1.76 µM | 3.27 µM |
| C=CCSc1nc2ccccc2c(=O)n1Cc1ccco1 |  | > 100 µM |  | > 100 µM |  | > 100 µM |  | > 100 µM |  | > 100 µM |  | > 100 µM |  | > 100 µM |
| NC(=O)c1cccc(Nc2nccc(Nc3cccc(F)c3)n2)c1 | 17.5 µM | > 25 µM | 6.73 µM | > 17.9 µM | 7.45 µM | > 25 µM | 12.3 µM | > 25 µM | 9.1 µM | > 25 µM | 6.15 µM | > 25 µM | 8.83 µM | > 25 µM |
